Measured values reported in ChEMBL document CHEMBL1131716, “Heterocycle-peptide hybrid compounds. Aminotriazole-containing agonists of the thrombin receptor (PAR-1)” (Bioorg Med Chem Lett, 1999).
Where a SMILES comes first, the peptide text is derived from it. [ ]: non-standard residue; d: D form. The star is where a group is joined. Cha = N[C@@H](CC1CCCCC1)C(=O)O; Nicotinoyl = O=C(c1cccnc1)*; 3Abz = Nc1cccc(C(=O)O)c1; βAla = NCCC(=O)O

Molecular target: T1, Proteinase-activated receptor 1 (Homo sapiens, UniProt P25116)
T1 sequence (P25116 whole entry): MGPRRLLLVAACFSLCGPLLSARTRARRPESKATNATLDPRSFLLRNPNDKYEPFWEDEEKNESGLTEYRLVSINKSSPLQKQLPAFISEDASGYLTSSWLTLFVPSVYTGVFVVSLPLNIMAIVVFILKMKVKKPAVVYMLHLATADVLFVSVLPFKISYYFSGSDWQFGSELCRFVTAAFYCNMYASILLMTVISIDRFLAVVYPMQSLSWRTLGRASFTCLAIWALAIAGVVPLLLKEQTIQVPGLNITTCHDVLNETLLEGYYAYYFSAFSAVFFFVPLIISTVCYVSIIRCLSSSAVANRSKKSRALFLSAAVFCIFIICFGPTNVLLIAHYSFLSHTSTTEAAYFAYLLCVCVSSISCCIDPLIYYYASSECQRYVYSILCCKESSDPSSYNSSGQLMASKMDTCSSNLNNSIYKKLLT
Assay: Inhibition of [3H]S-(p-F-Phe)-Har-L-Har-KY-NH2 binding to thrombin receptor (PAR-1) on membranes from CHRF cells
Type: cell membranes

| Structure (SMILES) | IC50 [µM] |
| --- | --- |
| N=C(N)NCCC[C@H](NC(=O)[C@H](CC1CCCCC1)NC(=O)c1csnn1)C(=O)N[C@@H](Cc1ccccc1)C(N)=O | 9.4 |
| N=C(N)NCCC[C@H](NC(=O)[C@H](CC1CCCCC1)NC(=O)c1n[nH]c(NC(=O)/C=C/c2cccc3ccccc23)n1)C(=O)N[C@@H](Cc1ccccc1)C(N)=O | 16 |
| N=C(N)NCCC[C@H](NC(=O)[C@H](CC1CCCCC1)NC(=O)/C=C/c1cccnc1)C(=O)N[C@@H](Cc1ccccc1)C(N)=O | 5.5 |
| N=C(N)NCCC[C@H](NC(=O)[C@H](CC1CCCCC1)NC(=O)CCN)C(=O)N[C@@H](Cc1ccccc1)C(N)=O (H-[βAla][Cha]RF-NH2) | 9 |
| N=C(N)NCCC[C@H](NC(=O)[C@H](CC1CCCCC1)NC(=O)c1n[nH]c(NC(=O)/C=C/c2cccs2)n1)C(=O)N[C@@H](Cc1ccccc1)C(N)=O | 4.4 |
| NCCCC[C@H](NC(=O)[C@H](CC1CCCCC1)NC(=O)c1n[nH]c(N)n1)C(=O)N[C@@H](Cc1ccccc1)C(N)=O | 5.4 |
| N=C(N)NCCC[C@H](NC(=O)[C@H](CC1CCCCC1)NC(=O)c1ccccn1)C(=O)N[C@@H](Cc1ccccc1)C(N)=O | 4.4 |
| N=C(N)NCCC[C@H](NC(=O)[C@H](CC1CCCCC1)NC(=O)c1nnc(N)[nH]1)C(=O)N[C@@H](Cc1cccs1)C(N)=O | 4 |
| N=C(N)NCCC[C@H](NC(=O)[C@H](CC1CCCCC1)NC(=O)c1n[nH]c(NC(=O)/C=C/c2c[nH]c3ccccc23)n1)C(=O)N[C@@H](Cc1ccccc1)C(N)=O | 100 |
| N=C(N)NCCC[C@H](NC(=O)[C@H](CC1CCCCC1)NC(=O)c1nnc(N)[nH]1)C(=O)N[C@H](C(N)=O)c1ccccc1 | 7 |
| N=C(N)NCCC[C@H](NC(=O)[C@H](CC1CCCCC1)NC(=O)c1nccnc1N)C(=O)N[C@@H](Cc1ccccc1)C(N)=O | 8.5 |

Further lines, results first:

| IC50 [µM] | Structure (SMILES) |
| --- | --- |
| 4 | N=C(N)NCCC[C@H](NC(=O)[C@H](Cc1ccccc1)NC(=O)c1ccc2[nH]cnc2c1)C(=O)N[C@@H](Cc1ccccc1)C(N)=O |
| 3.1 | N=C(N)NCCC[C@H](NC(=O)[C@H](CC1CCCCC1)NC(=O)c1cnc2ccccc2n1)C(=O)N[C@@H](Cc1ccccc1)C(N)=O |
| 2.4 | N=C(N)NCCC[C@H](NC(=O)[C@H](CC1CCCCC1)NC(=O)c1ccc(Cl)nc1)C(=O)N[C@@H](Cc1ccccc1)C(N)=O |
| 2.4 | N=C(N)NCCC[C@H](NC(=O)[C@H](CC1CCCCC1)NC(=O)c1ccc2c(c1)-c1ccccc1-2)C(=O)N[C@@H](Cc1ccccc1)C(N)=O |
| 2.3 | N=C(N)NCCC[C@H](NC(=O)[C@H](CC1CCCCC1)NC(=O)c1cccnc1N)C(=O)N[C@@H](Cc1ccccc1)C(N)=O |
| 2.3 | N=C(N)NCCC[C@H](NC(=O)[C@H](CC1CCCCC1)NC(=O)c1cc2ccccc2s1)C(=O)N[C@@H](Cc1ccccc1)C(N)=O |
| 2 | N=C(N)NCCC[C@H](NC(=O)[C@H](Cc1ccccc1)NC(=O)c1nnc(N)[nH]1)C(=O)N[C@@H](Cc1ccccc1)C(N)=O |
| 2 | N=C(N)NCCC[C@H](NC(=O)[C@H](CC1CCCCC1)NC(=O)c1ccc(N)nc1)C(=O)N[C@@H](Cc1ccccc1)C(N)=O |
| 2 | N=C(N)NCCC[C@H](NC(=O)[C@H](CC1CCCCC1)NC(=O)c1cccc(N)c1)C(=O)N[C@@H](Cc1ccccc1)C(N)=O (H-[3Abz][Cha]RF-NH2) |
| 1.9 | N=C(N)NCCC[C@H](NC(=O)[C@H](CC1CCCCC1)NC(=O)c1n[nH]c(N)n1)C(=O)N[C@@H](Cc1ccccc1)C(N)=O |
| 1.6 | N=C(N)NCCC[C@H](NC(=O)[C@H](CC1CCCCC1)NC(=O)c1n[nH]c(NC(=O)/C=C/c2ccccc2[N+](=O)[O-])n1)C(=O)N[C@@H](Cc1ccccc1)C(N)=O |
| 1.3 | N=C(N)NCCC[C@H](NC(=O)[C@H](CC1CCCCC1)NC(=O)c1cccnc1)C(=O)N[C@@H](Cc1ccccc1)C(N)=O (Nicotinoyl-[Cha]-Arg-Phe-NH2) |
| 0.55 | CC(C)C[C@H](NC(=O)[C@H](CC(C)C)NC(=O)[C@H](Cc1ccccc1)NC(=O)[C@@H](N)CO)C(=O)N[C@@H](CCCN=C(N)N)C(=O)N[C@@H](CC(N)=O)C(N)=O |

Species on record: Homo sapiens
Assay: Antagonist activity by using human gel-filtered platelet aggregation
Type: functional

| IC50 [µM] | Structure (SMILES) |
| --- | --- |
| 5.4 | N=C(N)NCCC[C@H](NC(=O)[C@H](CC1CCCCC1)NC(=O)c1n[nH]c(NC(=O)/C=C/c2cccc3ccccc23)n1)C(=O)N[C@@H](Cc1ccccc1)C(N)=O |
| 28 | N=C(N)NCCC[C@H](NC(=O)[C@H](CC1CCCCC1)NC(=O)c1n[nH]c(NC(=O)/C(F)=C/c2ccccc2)n1)C(=O)N[C@@H](Cc1ccccc1)C(N)=O |
